Test results from PMC5053573, “Structure-Based Design of Tetrahydroisoquinoline-7-carboxamides as Selective Discoidin Domain Receptor 1 (DDR1) Inhibitors” (Journal of Medicinal Chemistry, 2016).

Assays:
Experiment in all cases: biochemical
Conditions in all cases: read-out: %Ctrl @ 1000nM
DMPK = DMPK (Homo sapiens, UniProt Q09013)
EGFR(T790M) = EGFR(T790M) (Homo sapiens, UniProt P00533, T790M)
MAPKAPK2 = MAPKAPK2 (Homo sapiens, UniProt P49137)
NEK11 = NEK11 (Homo sapiens, UniProt Q8NG66)
QSK = biological target: T1, QSK (Homo sapiens, UniProt Q9Y2K2)
T1 construct: gene SIK3

TAOK1 = TAOK1 (Homo sapiens, UniProt Q7L7X3)
FLT3(D835Y) = FLT3(D835Y) (Homo sapiens, UniProt P36888, D835Y)
IKK-epsilon = biological target: T2, IKK-epsilon (Homo sapiens, UniProt Q14164)
T2 construct: gene IKBKE

BRSK2 = BRSK2 (Homo sapiens, UniProt Q8IWQ3)
PIP5K2C = biological target: T3, PIP5K2C (Homo sapiens, UniProt Q8TBX8)
T3 construct: gene PIP4K2C

DRAK2 = biological target: T4, DRAK2 (Homo sapiens, UniProt O94768)
T4 construct: gene STK17B
T4 sequence (O94768 whole entry): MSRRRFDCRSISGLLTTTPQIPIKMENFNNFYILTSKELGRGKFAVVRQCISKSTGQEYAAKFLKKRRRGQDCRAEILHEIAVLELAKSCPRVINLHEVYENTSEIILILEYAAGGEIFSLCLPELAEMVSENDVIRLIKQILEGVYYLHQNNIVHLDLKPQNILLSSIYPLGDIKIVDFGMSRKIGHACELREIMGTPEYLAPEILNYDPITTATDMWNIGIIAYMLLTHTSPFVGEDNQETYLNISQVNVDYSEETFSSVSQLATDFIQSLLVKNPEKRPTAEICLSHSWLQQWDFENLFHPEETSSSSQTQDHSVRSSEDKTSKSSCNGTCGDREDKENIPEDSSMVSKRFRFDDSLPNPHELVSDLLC

MEK2 = biological target: T5, MEK2 (Homo sapiens, UniProt P36507)
T5 construct: gene MAP2K2
T5 sequence (P36507 whole entry): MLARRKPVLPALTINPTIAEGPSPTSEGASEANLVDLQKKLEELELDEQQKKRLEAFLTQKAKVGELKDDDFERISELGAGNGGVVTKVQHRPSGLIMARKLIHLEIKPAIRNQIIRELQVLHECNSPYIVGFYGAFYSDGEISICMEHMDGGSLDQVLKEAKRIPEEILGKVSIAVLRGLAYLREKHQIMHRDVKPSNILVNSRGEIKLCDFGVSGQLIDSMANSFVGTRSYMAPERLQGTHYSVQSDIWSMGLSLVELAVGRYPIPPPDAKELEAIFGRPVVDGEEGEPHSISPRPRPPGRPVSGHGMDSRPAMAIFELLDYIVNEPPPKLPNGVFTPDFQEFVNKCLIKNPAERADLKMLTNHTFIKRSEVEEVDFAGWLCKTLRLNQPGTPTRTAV

LCK = LCK (Homo sapiens, UniProt P06239)
IKK-alpha = biological target: T6, IKK-alpha (Homo sapiens, UniProt O15111)
T6 construct: gene CHUK

MARK1 = MARK1 (Homo sapiens, UniProt Q9P0L2)
PRKCI = PRKCI (Homo sapiens, UniProt P41743)
ALK = ALK (Homo sapiens, UniProt Q9UM73)
PDPK1 = PDPK1 (Homo sapiens, UniProt O15530)
GSK3B = GSK3B (Homo sapiens, UniProt P49841)
CDKL2 = CDKL2 (Homo sapiens, UniProt Q92772)
JNK1 = biological target: T7, JNK1 (Homo sapiens, UniProt P45983)
T7 construct: gene MAPK8

PIKFYVE = PIKFYVE (Homo sapiens, UniProt Q9Y2I7)
PIKFYVE, sequence (Q9Y2I7 whole entry): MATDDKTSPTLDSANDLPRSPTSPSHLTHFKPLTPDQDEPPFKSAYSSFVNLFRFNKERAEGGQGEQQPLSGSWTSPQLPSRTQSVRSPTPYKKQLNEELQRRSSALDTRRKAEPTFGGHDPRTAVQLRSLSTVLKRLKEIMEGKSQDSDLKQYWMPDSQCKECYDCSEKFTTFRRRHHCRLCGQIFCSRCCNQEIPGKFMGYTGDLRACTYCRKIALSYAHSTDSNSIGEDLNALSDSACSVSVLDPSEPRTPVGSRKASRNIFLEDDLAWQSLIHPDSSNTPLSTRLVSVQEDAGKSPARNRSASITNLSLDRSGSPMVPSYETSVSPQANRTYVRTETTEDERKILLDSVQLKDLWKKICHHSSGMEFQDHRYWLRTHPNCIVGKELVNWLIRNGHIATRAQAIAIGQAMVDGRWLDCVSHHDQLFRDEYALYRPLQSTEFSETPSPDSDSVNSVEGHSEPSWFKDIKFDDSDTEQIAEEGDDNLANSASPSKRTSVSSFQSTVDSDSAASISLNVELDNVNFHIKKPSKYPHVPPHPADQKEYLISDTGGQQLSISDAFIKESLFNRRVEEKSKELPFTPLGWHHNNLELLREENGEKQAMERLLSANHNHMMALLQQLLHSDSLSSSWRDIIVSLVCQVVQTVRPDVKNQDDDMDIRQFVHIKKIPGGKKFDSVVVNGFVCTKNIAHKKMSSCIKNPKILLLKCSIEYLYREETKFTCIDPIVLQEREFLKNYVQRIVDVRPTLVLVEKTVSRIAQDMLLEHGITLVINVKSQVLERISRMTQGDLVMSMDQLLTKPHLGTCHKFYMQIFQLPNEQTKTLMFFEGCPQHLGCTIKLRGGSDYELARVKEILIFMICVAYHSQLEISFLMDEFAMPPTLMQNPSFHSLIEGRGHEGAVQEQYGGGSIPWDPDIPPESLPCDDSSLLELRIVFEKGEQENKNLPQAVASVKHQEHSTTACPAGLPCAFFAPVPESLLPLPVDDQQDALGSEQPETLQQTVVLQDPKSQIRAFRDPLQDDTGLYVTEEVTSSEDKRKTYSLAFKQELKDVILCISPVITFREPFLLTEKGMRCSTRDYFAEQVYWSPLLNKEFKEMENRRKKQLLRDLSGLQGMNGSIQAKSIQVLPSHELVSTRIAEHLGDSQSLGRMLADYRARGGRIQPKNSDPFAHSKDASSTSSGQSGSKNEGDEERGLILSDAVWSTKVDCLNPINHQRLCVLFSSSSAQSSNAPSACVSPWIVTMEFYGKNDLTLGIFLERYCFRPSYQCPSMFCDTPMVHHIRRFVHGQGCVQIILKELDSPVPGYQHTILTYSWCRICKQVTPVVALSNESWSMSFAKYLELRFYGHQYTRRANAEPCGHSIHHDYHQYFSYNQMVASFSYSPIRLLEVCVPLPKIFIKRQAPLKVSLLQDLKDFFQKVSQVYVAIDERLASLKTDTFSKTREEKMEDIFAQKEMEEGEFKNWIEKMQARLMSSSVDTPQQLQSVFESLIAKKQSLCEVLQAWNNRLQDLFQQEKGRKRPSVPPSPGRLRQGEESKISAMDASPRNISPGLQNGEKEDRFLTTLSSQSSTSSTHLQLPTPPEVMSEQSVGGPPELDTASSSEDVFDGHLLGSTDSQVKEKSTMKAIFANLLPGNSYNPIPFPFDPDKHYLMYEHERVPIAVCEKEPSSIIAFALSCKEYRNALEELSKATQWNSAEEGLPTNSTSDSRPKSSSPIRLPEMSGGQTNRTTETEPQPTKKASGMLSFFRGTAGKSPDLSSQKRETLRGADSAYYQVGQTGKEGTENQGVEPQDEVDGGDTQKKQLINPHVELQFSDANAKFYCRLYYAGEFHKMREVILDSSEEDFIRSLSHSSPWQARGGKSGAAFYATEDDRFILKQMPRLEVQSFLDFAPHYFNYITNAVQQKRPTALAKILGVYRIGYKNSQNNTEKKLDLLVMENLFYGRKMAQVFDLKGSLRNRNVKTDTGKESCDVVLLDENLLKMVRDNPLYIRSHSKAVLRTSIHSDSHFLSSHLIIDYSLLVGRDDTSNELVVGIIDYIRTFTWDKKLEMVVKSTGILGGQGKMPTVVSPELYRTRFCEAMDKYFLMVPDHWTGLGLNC

IRAK1 = IRAK1 (Homo sapiens, UniProt P51617)
PIK3CG = PIK3CG (Homo sapiens, UniProt P48736)
AMPK-alpha2 = biological target: T8, AMPK-alpha2 (Homo sapiens, UniProt P54646)
T8 construct: gene PRKAA2

PIK3CA(E542K) = PIK3CA(E542K) (Homo sapiens, UniProt P42336, E542K)
NEK5 = NEK5 (Homo sapiens, UniProt Q6P3R8)
CLK1 = CLK1 (Homo sapiens, UniProt P49759)
EGFR(S752-I759del) = EGFR(S752-I759del) (Homo sapiens, UniProt P00533, DEL752-759)
EGFR(L861Q) = EGFR(L861Q) (Homo sapiens, UniProt P00533, L861Q)
DYRK1A = DYRK1A (Homo sapiens, UniProt Q13627)
MLCK = biological target: T9, MLCK (Homo sapiens, UniProt Q32MK0)
T9 construct: gene MYLK3

PIP5K2B = biological target: T10, PIP5K2B (Homo sapiens, UniProt P78356)
T10 construct: gene PIP4K2B

PCTK2 = biological target: T11, PCTK2 (Homo sapiens, UniProt Q00537)
T11 construct: gene CDK17

SIK = biological target: T12, SIK (Homo sapiens, UniProt P57059)
T12 construct: gene SIK1

NEK11, sequence (Q8NG66 whole entry): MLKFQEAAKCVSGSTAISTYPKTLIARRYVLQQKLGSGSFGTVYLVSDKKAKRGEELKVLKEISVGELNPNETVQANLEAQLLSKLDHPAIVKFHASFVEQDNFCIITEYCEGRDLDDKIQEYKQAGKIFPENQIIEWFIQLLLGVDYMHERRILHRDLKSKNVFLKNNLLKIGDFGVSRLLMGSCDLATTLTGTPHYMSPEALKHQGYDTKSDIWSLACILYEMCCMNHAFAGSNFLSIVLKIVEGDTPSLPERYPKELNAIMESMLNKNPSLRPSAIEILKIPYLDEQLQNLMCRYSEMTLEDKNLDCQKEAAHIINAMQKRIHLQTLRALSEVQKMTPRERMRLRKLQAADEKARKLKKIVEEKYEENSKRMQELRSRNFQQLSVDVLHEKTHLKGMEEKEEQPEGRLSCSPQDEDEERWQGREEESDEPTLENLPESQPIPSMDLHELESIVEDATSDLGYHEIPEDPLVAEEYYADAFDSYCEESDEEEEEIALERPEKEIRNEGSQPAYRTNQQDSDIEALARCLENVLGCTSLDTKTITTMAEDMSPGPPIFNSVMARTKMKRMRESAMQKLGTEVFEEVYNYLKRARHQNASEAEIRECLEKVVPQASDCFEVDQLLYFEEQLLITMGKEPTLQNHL
EGFR(T790M), sequence (P00533 whole entry T790M): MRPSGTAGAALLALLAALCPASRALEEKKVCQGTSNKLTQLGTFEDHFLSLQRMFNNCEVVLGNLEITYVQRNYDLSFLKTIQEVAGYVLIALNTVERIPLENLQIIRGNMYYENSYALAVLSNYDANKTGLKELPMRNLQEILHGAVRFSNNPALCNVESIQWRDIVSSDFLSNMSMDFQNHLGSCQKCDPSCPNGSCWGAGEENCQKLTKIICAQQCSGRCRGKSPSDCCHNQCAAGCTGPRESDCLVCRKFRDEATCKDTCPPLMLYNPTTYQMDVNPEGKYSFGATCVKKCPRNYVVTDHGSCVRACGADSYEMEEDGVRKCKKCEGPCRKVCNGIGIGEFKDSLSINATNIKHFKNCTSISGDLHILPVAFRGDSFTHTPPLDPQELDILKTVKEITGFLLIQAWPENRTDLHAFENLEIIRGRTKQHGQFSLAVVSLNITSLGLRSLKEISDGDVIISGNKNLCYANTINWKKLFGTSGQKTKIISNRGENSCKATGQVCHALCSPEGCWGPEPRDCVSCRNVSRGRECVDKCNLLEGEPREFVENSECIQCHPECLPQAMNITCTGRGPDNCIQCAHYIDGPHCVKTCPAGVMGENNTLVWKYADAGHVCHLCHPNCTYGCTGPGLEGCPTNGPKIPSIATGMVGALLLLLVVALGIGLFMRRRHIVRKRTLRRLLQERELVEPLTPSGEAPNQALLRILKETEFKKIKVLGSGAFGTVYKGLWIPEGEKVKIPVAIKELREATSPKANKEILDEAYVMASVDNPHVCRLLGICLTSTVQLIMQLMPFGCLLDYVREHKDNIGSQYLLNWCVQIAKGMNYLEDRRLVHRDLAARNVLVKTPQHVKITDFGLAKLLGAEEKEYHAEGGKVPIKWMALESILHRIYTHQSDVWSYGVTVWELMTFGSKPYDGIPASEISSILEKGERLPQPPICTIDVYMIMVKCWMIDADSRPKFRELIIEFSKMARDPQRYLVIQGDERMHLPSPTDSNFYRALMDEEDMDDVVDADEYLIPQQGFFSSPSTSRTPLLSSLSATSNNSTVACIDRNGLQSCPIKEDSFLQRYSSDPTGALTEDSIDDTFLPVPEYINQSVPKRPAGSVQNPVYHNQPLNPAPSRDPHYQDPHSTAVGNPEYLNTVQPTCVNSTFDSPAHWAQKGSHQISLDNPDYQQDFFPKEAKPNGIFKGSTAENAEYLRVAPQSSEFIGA

Question: Which remaining activity at 1 µM (DMPK) does the source give for `Cc1cn(-c2cc(NC(=O)c3ccc4c(c3)CN(c3cncnc3)C[C@@H]4C)cc(C(F)(F)F)c2)cn1` [Compound 6j] here?
Answer: 100%

Question: What about the remaining activity at 1 µM (EGFR(T790M)) of the same compound?
Answer: 100%

Question: And the remaining activity at 1 µM (MAPKAPK2)?
Answer: 100%

Question: What about the remaining activity at 1 µM (NEK11) of the same compound?
Answer: 87%

Question: And the remaining activity at 1 µM (QSK)?
Answer: 94%

Question: What about the remaining activity at 1 µM (TAOK1) of the same compound?
Answer: 100%

Question: And the remaining activity at 1 µM (FLT3(D835Y))?
Answer: 40%

Question: And the remaining activity at 1 µM (IKK-epsilon)?
Answer: 86%

Question: What about the remaining activity at 1 µM (BRSK2) of the same compound?
Answer: 94%

Question: And the remaining activity at 1 µM (PIP5K2C)?
Answer: 100%

Question: And the remaining activity at 1 µM (DRAK2)?
Answer: 97%

Question: What about the remaining activity at 1 µM (MEK2) of the same compound?
Answer: 100%

Question: And the remaining activity at 1 µM (LCK)?
Answer: 74%

Question: What about the remaining activity at 1 µM (IKK-alpha) of the same compound?
Answer: 100%

Question: What about the remaining activity at 1 µM (MARK1) of the same compound?
Answer: 74%

Question: And the remaining activity at 1 µM (PRKCI)?
Answer: 72%

Question: And the remaining activity at 1 µM (ALK)?
Answer: 95%

Question: And the remaining activity at 1 µM (PDPK1)?
Answer: 84%

Question: And the remaining activity at 1 µM (GSK3B)?
Answer: 94%

Question: And the remaining activity at 1 µM (CDKL2)?
Answer: 93%

Question: And the remaining activity at 1 µM (JNK1)?
Answer: 97%

Question: What about the remaining activity at 1 µM (PIKFYVE) of the same compound?
Answer: 100%

Question: And the remaining activity at 1 µM (IRAK1)?
Answer: 100%

Question: And the remaining activity at 1 µM (PIK3CG)?
Answer: 100%

Question: And the remaining activity at 1 µM (AMPK-alpha2)?
Answer: 100%

Question: What about the remaining activity at 1 µM (PIK3CA(E542K)) of the same compound?
Answer: 100%

Question: And the remaining activity at 1 µM (NEK5)?
Answer: 95%

Question: And the remaining activity at 1 µM (CLK1)?
Answer: 92%

Question: And the remaining activity at 1 µM (EGFR(S752-I759del))?
Answer: 82%

Question: What about the remaining activity at 1 µM (EGFR(L861Q)) of the same compound?
Answer: 97%

Question: And the remaining activity at 1 µM (DYRK1A)?
Answer: 100%

Question: What about the remaining activity at 1 µM (MLCK) of the same compound?
Answer: 92%

Question: And the remaining activity at 1 µM (PIP5K2B)?
Answer: 81%

Question: And the remaining activity at 1 µM (PCTK2)?
Answer: 96%

Question: And the remaining activity at 1 µM (SIK)?
Answer: 84%
